Each structure is given as a SMILES string.

Experiment [1] deals with T1, Peroxisome proliferator-activated receptor gamma (Homo sapiens) (UniProt P37231).
T1 sequence (whole entry): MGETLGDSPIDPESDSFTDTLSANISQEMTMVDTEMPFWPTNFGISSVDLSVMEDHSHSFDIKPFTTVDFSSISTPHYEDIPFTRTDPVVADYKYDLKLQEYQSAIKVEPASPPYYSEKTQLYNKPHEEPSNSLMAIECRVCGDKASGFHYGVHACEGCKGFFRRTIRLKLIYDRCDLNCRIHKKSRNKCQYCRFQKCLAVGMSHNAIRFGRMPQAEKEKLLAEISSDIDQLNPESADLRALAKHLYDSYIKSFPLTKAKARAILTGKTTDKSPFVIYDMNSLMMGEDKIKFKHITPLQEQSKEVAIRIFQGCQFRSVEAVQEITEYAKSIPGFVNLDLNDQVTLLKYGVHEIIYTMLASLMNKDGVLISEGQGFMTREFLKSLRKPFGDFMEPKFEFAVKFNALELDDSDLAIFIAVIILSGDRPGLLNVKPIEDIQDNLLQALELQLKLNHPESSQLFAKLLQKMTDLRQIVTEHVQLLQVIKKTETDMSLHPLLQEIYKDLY
In words: Inhibition of PPRAgamma in HEK293 cells assessed as […] in FABP4 mRNA expression at 100 nM relative to control. It counts as cell-based.

The nature of experiment [2]: Induction of ANGPTL4 mRNA expression in human HT1197 cells.

Usually inhibition stands for the change of the read-out against control, counted positive when it falls. Consider `N#Cc1ccc(Cl)c(-c2cc(=O)c3c(F)cc(F)cc3[nH]2)c1`, for which the inhibition in experiment [1] is 95%. In general, EC50 refers to the concentration that produces a half-maximal response. Higher therefore signals weaker potency. `N#Cc1cc(-c2cc(=O)c3c(F)cc(F)cc3[nH]2)c(Cl)cn1` displayed an EC50 in experiment [2] of 0.14 nM.
